Measured values reported in BindingDB's records for doi:10.1016/j.bmcl.2009.09.017 (Pfizer, 2009).

Assay: Antagonist activity at P2Y12 receptor in human platelet rich plasma assessed as inhibition of ADP-induced platelet aggregation by light transmission aggregometry

Row | Compound | IC50 [nM]
1 | CCCCOC(=O)N1CCN(C(=O)[C@H](CCC(=O)O)NC(=O)c2cc(N3CCC(CCOC)CC3)nc(-c3ccccc3)n2)CC1 [(S)-5-(4-(butoxycarbonyl)piperazin-1-yl)-4-(6-(4-(2-methoxyethyl)piperidin-1-yl)-2-phenylpyrimidine-4-carboxamido)-5-oxopentanoic acid] | 1200
2 | CCCCOC(=O)N1CCN(C(=O)[C@H](CCC(=O)O)NC(=O)c2cc(N3CCC(C(=O)N(CC)CC)CC3)nc(-c3ccccc3)n2)CC1 [(S)-5-(4-(butoxycarbonyl)piperazin-1-yl)-4-(6-(4-(diethylcarbamoyl)piperidin-1-yl)-2-phenylpyrimidine-4-carboxamido)-5-oxopentanoic acid] | 280
3 | CCCCOC(=O)N1CCN(C(=O)[C@H](CCC(=O)O)NC(=O)c2cc(N3CCC(C(=O)N(C)C)CC3)nc(-c3ccccc3)n2)CC1 [(S)-5-(4-(butoxycarbonyl)piperazin-1-yl)-4-(6-(4-(dimethylcarbamoyl)piperidin-1-yl)-2-phenylpyrimidine-4-carboxamido)-5-oxopentanoic acid] | 1500
4 | CCCCOC(=O)N1CCN(C(=O)[C@H](CCC(=O)O)NC(=O)c2cc(N3CCC(OC)CC3)nc(-c3ccccc3)n2)CC1 [(S)-5-(4-(butoxycarbonyl)piperazin-1-yl)-4-(6-(4-methoxypiperidin-1-yl)-2-phenylpyrimidine-4-carboxamido)-5-oxopentanoic acid] | 1800
5 | CCCCOC(=O)N1CCN(C(=O)[C@H](CCC(=O)O)NC(=O)c2cc(N3CCC(N4CCOCC4)CC3)nc(-c3ccccc3)n2)CC1 [(S)-5-(4-(butoxycarbonyl)piperazin-1-yl)-4-(6-(4-morpholinopiperidin-1-yl)-2-phenylpyrimidine-4-carboxamido)-5-oxopentanoic acid] | 880
6 | CCCCOC(=O)N1CCN(C(=O)[C@H](CCC(=O)O)NC(=O)c2cc(OCC3CCN(C)CC3)nc(-c3ccccc3)n2)CC1 [(S)-5-(4-(butoxycarbonyl)piperazin-1-yl)-4-(6-((1-methylpiperidin-4-yl)methoxy)-2-phenylpyrimidine-4-carboxamido)-5-oxopentanoic acid] | 3000
7 | CCCCOC(=O)N1CCN(C(=O)[C@H](CCC(=O)O)NC(=O)c2cc(N3CCC(N4CCCC4)CC3)nc(-c3ccccc3)n2)CC1 [(S)-5-(4-(butoxycarbonyl)piperazin-1-yl)-5-oxo-4-(2-phenyl-6-(4-(pyrrolidin-1-yl)piperidin-1-yl)pyrimidine-4-carboxamido)pentanoic acid] | 660
8 | CCCCOC(=O)N1CCN(C(=O)[C@H](CCC(=O)O)NC(=O)c2cc(N3CCC(C(=O)N4CCCC4)CC3)nc(-c3ccccc3)n2)CC1 [(S)-5-(4-(butoxycarbonyl)piperazin-1-yl)-5-oxo-4-(2-phenyl-6-(4-(pyrrolidine-1-carbonyl)piperidin-1-yl)pyrimidine-4-carboxamido)pentanoic acid] | 390
9 | CCCCOC(=O)N1CCN(C(=O)[C@H](CCC(=O)O)NC(=O)c2cc(OCC3CCNCC3)nc(-c3ccccc3)n2)CC1 [(S)-5-(4-(butoxycarbonyl)piperazin-1-yl)-5-oxo-4-(2-phenyl-6-(piperidin-4-ylmethoxy)pyrimidine-4-carboxamido)pentanoic acid] | 1200
10 | CCCCOC(=O)N1CCN(C(=O)[C@H](CCC(=O)O)NC(=O)c2cc(OC3CCNCC3)nc(-c3ccccc3)n2)CC1 [(S)-5-(4-(butoxycarbonyl)piperazin-1-yl)-5-oxo-4-(2-phenyl-6-(piperidin-4-yloxy)pyrimidine-4-carboxamido)pentanoic acid] | 1300
11 | CCCCCOC(=O)N1CCN(C(=O)[C@H](CCC(=O)O)NC(=O)c2cc(SCC(F)(F)F)nc(-c3ccccc3)n2)CC1 [(S)-5-oxo-5-(4-(pentyloxycarbonyl)piperazin-1-yl)-4-(2-phenyl-6-(2,2,2-trifluoroethylthio)pyrimidine-4-carboxamido)pentanoic acid] | > 10000
12 | CCCCCOC(=O)N1CCN(C(=O)[C@H](CCC(=O)O)NC(=O)c2nc(OCC3CCNCC3)cc(-c3ccccc3)n2)CC1 [(S)-5-oxo-5-(4-(pentyloxycarbonyl)piperazin-1-yl)-4-(4-phenyl-6-(piperidin-4-ylmethoxy)pyrimidine-2-carboxamido)pentanoic acid] | 9400

Further lines, results first:

Row | IC50 [nM] | Compound
13 | 1100 | CCCCCOC(=O)N1CCN(C(=O)[C@H](CCC(=O)O)NC(=O)c2cc(N3CCN(CC(=O)N4CCCC4)CC3)nc(-c3ccccc3)n2)CC1 [(S)-5-oxo-4-(6-(4-(2-oxo-2-(pyrrolidin-1-yl)ethyl)piperazin-1-yl)-2-phenylpyrimidine-4-carboxamido)-5-(4-(pentyloxycarbonyl)piperazin-1-yl)pentanoic acid]
14 | 1500 | CCCCCOC(=O)N1CCN(C(=O)[C@H](CCC(=O)O)NC(=O)c2cc(N3CCC(CC(=O)N4CCCC4)CC3)nc(-c3ccccc3)n2)CC1 [(S)-5-oxo-4-(6-(4-(2-oxo-2-(pyrrolidin-1-yl)ethyl)piperidin-1-yl)-2-phenylpyrimidine-4-carboxamido)-5-(4-(pentyloxycarbonyl)piperazin-1-yl)pentanoic acid]
15 | 1600 | CCCCCOC(=O)N1CCN(C(=O)[C@H](CCC(=O)O)NC(=O)c2cc(N3CCC(CN4CCCC4=O)CC3)nc(-c3ccccc3)n2)CC1 [(S)-5-oxo-4-(6-(4-((2-oxopyrrolidin-1-yl)methyl)piperidin-1-yl)-2-phenylpyrimidine-4-carboxamido)-5-(4-(pentyloxycarbonyl)piperazin-1-yl)pentanoic acid]
16 | 810 | CCCCCOC(=O)N1CCN(C(=O)[C@H](CCC(=O)O)NC(=O)c2cc(N3CCC(CCN4CCCC4)CC3)nc(-c3ccccc3)n2)CC1 [(S)-5-oxo-5-(4-(pentyloxycarbonyl)piperazin-1-yl)-4-(2-phenyl-6-(4-(2-(pyrrolidin-1-yl)ethyl)piperidin-1-yl)pyrimidine-4-carboxamido)pentanoic acid]
17 | 510 | CCCCCOC(=O)N1CCN(C(=O)[C@H](CCC(=O)O)NC(=O)c2cc(N3CCC(N4CCCC4)CC3)nc(-c3ccccc3)n2)CC1 [(S)-5-oxo-5-(4-(pentyloxycarbonyl)piperazin-1-yl)-4-(2-phenyl-6-(4-(pyrrolidin-1-yl)piperidin-1-yl)pyrimidine-4-carboxamido)pentanoic acid]
18 | 560 | CCCCCOC(=O)N1CCN(C(=O)[C@H](CCC(=O)O)NC(=O)c2cc(N3CCC(CN4CCCC4)CC3)nc(-c3ccccc3)n2)CC1 [(S)-5-oxo-5-(4-(pentyloxycarbonyl)piperazin-1-yl)-4-(2-phenyl-6-(4-(pyrrolidin-1-ylmethyl)piperidin-1-yl)pyrimidine-4-carboxamido)pentanoic acid]
19 | 270 | CCCCCOC(=O)N1CCN(C(=O)[C@H](CCC(=O)O)NC(=O)c2cc(N3CCC(C(=O)N4CCCC4)CC3)nc(-c3ccccc3)n2)CC1 [(S)-5-oxo-5-(4-(pentyloxycarbonyl)piperazin-1-yl)-4-(2-phenyl-6-(4-(pyrrolidine-1-carbonyl)piperidin-1-yl)pyrimidine-4-carboxamido)pentanoic acid]
20 | 1300 | CCCCCOC(=O)N1CCN(C(=O)[C@H](CCC(=O)O)NC(=O)c2cc(N3CCNCC3)nc(-c3ccccc3)n2)CC1 [(S)-5-oxo-5-(4-(pentyloxycarbonyl)piperazin-1-yl)-4-(2-phenyl-6-(piperazin-1-yl)pyrimidine-4-carboxamido)pentanoic acid]
21 | 1700 | CCCCCOC(=O)N1CCN(C(=O)[C@H](CCC(=O)O)NC(=O)c2cc(OCC3CCNCC3)nc(-c3ccccc3)n2)CC1 [(S)-5-oxo-5-(4-(pentyloxycarbonyl)piperazin-1-yl)-4-(2-phenyl-6-(piperidin-4-ylmethoxy)pyrimidine-4-carboxamido)pentanoic acid]
22 | 1700 | CCCCCOC(=O)N1CCN(C(=O)[C@H](CCC(=O)O)NC(=O)c2nc(-c3ccccc3)cc(N3CCC(CCN4CCCC4)CC3)n2)CC1 [(S)-5-oxo-5-(4-(pentyloxycarbonyl)piperazin-1-yl)-4-(4-phenyl-6-(4-(2-(pyrrolidin-1-yl)ethyl)piperidin-1-yl)pyrimidine-2-carboxamido)pentanoic acid]
23 | 2100 | CCCCCOC(=O)N1CCN(C(=O)[C@H](CCC(=O)O)NC(=O)c2nc(-c3ccccc3)cc(N3CCC(N4CCCC4)CC3)n2)CC1 [(S)-5-oxo-5-(4-(pentyloxycarbonyl)piperazin-1-yl)-4-(4-phenyl-6-(4-(pyrrolidin-1-yl)piperidin-1-yl)pyrimidine-2-carboxamido)pentanoic acid]
24 | 5200 | CCCCCOC(=O)N1CCN(C(=O)[C@H](CCC(=O)O)NC(=O)c2nc(-c3ccccc3)cc(N3CCNCC3)n2)CC1 [(S)-5-oxo-5-(4-(pentyloxycarbonyl)piperazin-1-yl)-4-(4-phenyl-6-(piperazin-1-yl)pyrimidine-2-carboxamido)pentanoic acid]
